Results published in patent US20140079717A1, “Compositions and Methods to Prevent Cell Transformation and Cancer Metastasis” (CORNELL UNIVERSITY, priority 2011, published 2014).

Key:
[1] = test system: NIH3T3 fibroblasts; experiment: Anchorage-independent growth assay (soft agar) on NIH3T3 fibroblasts incubated with MVs; type: cell-based; settings: NIH3T3 cells, U87 cell-derived MVs treated with AG1478
Description: FIG. 21. Anchorage-independent growth assays were performed on fibroblasts incubated with MDAMB231 cell-derived MVs treated without or with T101, the RGD-peptide, or the control RGE-peptide. Data represents the mean±s.d. from at least three independent experiments.
FIG. 34. MDAMB231 cell-derived MVs transform recipient MCF10A mammary epithelial cells. Anchorage-independent growth assays were performed on NIH3T3 fibroblasts incubated with U87 cell-derived MVs treated without or with the EGF receptor inhibitor AG1478. The culturing medium (including the MVs, T101, and AG1478) for the soft agar assays performed was replenished every third day for 12 days, at which time the colonies that formed were counted. […]
Parental NIH3T3 cells or MCF10A cells incubated without or with MVs derived from 5.0×10^6 MDAMB231 cells or U87 cells, or NIH3T3 cells stably overexpressing the vector-control, wild-type tTG, or Cdc42 F28L, were plated at a density of 7×10^3 cells/ml in medium containing 0.3% agarose, without or with various inhibitors as indicated, onto underlays composed of growth medium containing 0.6% agarose in six-well dishes. The soft agar cultures were re-fed (including the addition of freshly prepared MVs and treatments with various inhibitors as indicated) every third day for 12 days, at which time the colonies that formed were counted. […]

[2] = test system: MDAMB231 cells; experiment: Shedding of MVs by MDAMB231 cells, immunoblot of flotillin-2 and tTG in MV lysates; type: cell-based, human; settings: MDAMB231 cells treated with inhibitor
Source text: FIG. 39. Serum-starved MDAMB231 cells treated without or with the tTG inhibitors T101 and MDC (left panel), transfected with either control siRNA (siCont) or two distinct tTG siRNAs (siTG-1 and siTG-2) (middle panel), or treated without or with the inhibitors of classical secretion, BFA and Exo1 (right panel), were lysed (WCLs) and the MVs released into the medium by the cells were also collected and lysed. The extracts were immunoblotted with antibodies against tTG, the MV-marker flotillin-2, and the cytosolic-specific-marker IκBα.
For each of the experiments that used MV preparations, the conditioned medium from 5.0×10^6 serum-starved MDAMB231 cells or U87 cells (which is the equivalent of two nearly confluent 150 MM dishes of either of these cell lines) were collected and the MVs isolated from the medium as previously described. […]
The protein concentrations of the whole cell lysates (WCLs) were determined using the Bio-Rad DC protein assay, while the MV lysates were normalized for comparison by isolating them from the conditioned medium of 5.0×10^6 serum-starved MDAMB231 cells or U87 cells for each of the experimental conditions assayed, and then lysing in 250 μl of cell lysis buffer. […] The primary antibodies were detected with horseradish peroxidase-conjugated secondary antibodies (Amersham Biosciences) followed by exposure to ECL reagent.

[3] = test system: MDAMB231 cells; experiment: MV formation by MDAMB231 cells, immunofluorescence with tTG antibody; type: cell-based, human; settings: serum-starved MDAMB231 cells treated with inhibitor
Description: FIG. 38. Serum-starved MDAMB231 cells treated without or with T101, MDC, BFA, or Exo1, were immuno-stained with a tTG antibody. Shown are representative images of the cells exposed to the various inhibitors. Cells forming MVs are denoted with arrows.
(§1) The MDAMB231, U87, MCF10A, and HeLa cell lines were grown in RPMI 1640 medium containing 10% fetal bovine serum, while the NIH3T3 cell line was grown in DMEM medium containing 10% calf serum. Expression constructs were transfected into cells using Lipofectamine, whereas the control and tTG siRNAs were introduced into cells with Lipofectamine 2000. As indicated, cells were incubated with serum-free medium containing combinations of 0.1 μg/ml EGF, 100 μM MDC, 10 μM T101, 10 μM BFA, and 10 μM Exo1. To mitotically arrest MDAMB231 cells, plates of cells were treated with 10 μg/ml mitomycin-C for 2 hours, before rinsing the solution away and allowing the cells to recover in growth medium (RPMI-1640 medium containing 10% FBS) for a day.
Cells were fixed with 3.7% paraformaldehyde and then some samples were permeabilized with phosphate-buffered saline (PBS) containing 0.1% Triton X-100. Permeabilized and non-permeabilized samples were incubated with a tTG antibody, and then incubated with Oregon green 488-conjugated secondary antibody. Rhodamine-conjugated phalloidin was used to stain actin and DAPI was used to stain nuclei. The cells were visualized by fluorescent microscopy and the images were captured and processed using IPLABS.

[4] = molecular target: T1, tTG (Homo sapiens, UniProt P21980); experiment: Transamidation activity of intact MDAMB231 cell-derived MVs (incorporation of BPA into casein); type: biochemical; settings: pre-treatment of intact MDAMB231 cell-derived MVs with inhibitor
T1 construct: endogenous in cells; host or cells: microvesicles shed by serum-starved MDAMB231 (and U87) cells
T1 sequence (P21980 1-687): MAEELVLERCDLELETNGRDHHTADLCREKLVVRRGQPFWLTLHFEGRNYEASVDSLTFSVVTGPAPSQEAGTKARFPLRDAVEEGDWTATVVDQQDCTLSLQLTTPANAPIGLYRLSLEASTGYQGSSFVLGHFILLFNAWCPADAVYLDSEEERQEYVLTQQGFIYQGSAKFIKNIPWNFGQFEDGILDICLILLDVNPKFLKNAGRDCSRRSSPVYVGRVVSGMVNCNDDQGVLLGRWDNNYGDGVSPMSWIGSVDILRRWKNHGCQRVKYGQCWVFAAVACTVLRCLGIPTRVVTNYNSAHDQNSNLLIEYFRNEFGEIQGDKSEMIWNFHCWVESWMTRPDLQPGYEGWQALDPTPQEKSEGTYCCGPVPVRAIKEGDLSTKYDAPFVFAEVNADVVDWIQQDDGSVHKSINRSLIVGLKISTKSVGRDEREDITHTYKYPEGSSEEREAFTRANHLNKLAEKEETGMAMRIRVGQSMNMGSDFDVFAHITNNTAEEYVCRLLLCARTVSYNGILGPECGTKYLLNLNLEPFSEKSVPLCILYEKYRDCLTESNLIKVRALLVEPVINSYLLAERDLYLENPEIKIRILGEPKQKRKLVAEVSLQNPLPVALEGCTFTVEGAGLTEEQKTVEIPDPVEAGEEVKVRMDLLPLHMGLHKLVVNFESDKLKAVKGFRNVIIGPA
Description: FIG. 17. Whole cell lysates (WCLs) of serum-starved MDAMB231 cells, as well as intact MVs generated by these cells treated without or with the tTG inhibitors T101 (cell-impermeable) or MDC (cell-permeable), were assayed for transamidation activity as readout by the incorporation of BPA into casein. The samples were then immunoblotted with antibodies against tTG, flotillin-2, and IκBα.
The transamidation activity in whole cell extracts was readout by the incorporation of BPA into lysate proteins as previously described, whereas the transamidation activity of recombinant tTG (0.1 μM) exposed to increasing concentrations of T101 was determined using a spectrophotometric assay. The transamidation activity associated with MVs was readout by incubating equal amounts (75 μl) of each MV sample in a buffer containing 40 mM N′N-dimethyl casein, 2 mM BPA, 40 mM CaCl2, and 40 mM dithiothreitol for 15 minutes. The reaction was stopped by the addition of Laemmli sample buffer followed by boiling. The reactions were then resolved by SDS-PAGE and the proteins transferred to polyvinylidene difluoride membranes. […]

[5] = test system: NIH3T3 fibroblasts stably overexpressing Myc-tagged tTG; experiment: Cell death assay on NIH3T3 fibroblasts stably overexpressing Myc-tTG; type: cell-based; settings: serum-free medium, cells treated with MDC
Description: FIG. 23. Cell death assays were performed on the NIH3T3 stable cell lines maintained in serum-free medium that was treated with T101, MDC, or 2% CS-medium, or was untreated. Data represents the mean±s.d. from at least three independent experiments.
NIH3T3 cells or MCF10A cells were plated in each well of a 6-well dish and then cultured in medium containing 2% CS or serum-free medium supplemented without or with MVs derived from 5.0×10^6 MDAMB231 cells or U87 cells, and without or with MDC or T101, as indicated. Two days later the cultures were fixed and stained with DAPI for viewing by fluorescence microscopy. Cells undergoing apoptosis were identified by nuclear condensation or blebbing and the percentage of cell death was determined by calculating the ratio of apoptotic to total cells for each condition. These experiments were conducted at least three times and the results from each experiment were averaged together and graphed.

[6] = test system: MDAMB231 cells; experiment: Tumor formation assay in nude mice; type: in vivo; settings: cells exposed to mitomycin-C before subcutaneous injection into nude mice
Description: FIG. 25. Tumor formation assays were performed in which 5×10^5 mitotically-arrested (using mitomycin-C) MDAMB231 cells (denoted as Mito-C-MDAMB231) expressing either control siRNA (siCont) or tTG siRNAs (denoted as siTG-1 or siTG-2) were subcutaneously injected singly, or combined with 5×10^5 NIH3T3 fibroblasts, into nude mice. As controls, untreated MDAMB231 and NIH3T3 cells were injected into nude mice.
as §1, with “To mitotically arrest MDAMB231 cells, plates of cells were treated with 10 μg/ml mitomycin-C for 2 hours, before rinsing the solution away and allowing the cells to recover in growth medium (RPMI-1640 medium containing 10% FBS) for a day.” left out
5×10^5 mitotically arrested (using mitomycin-C) MDAMB231 cells stably expressing control or tTG siRNAs were combined with 5×10^5 NIH3T3 fibroblasts and growth factor-reduced Matrigel (BD Biosciences) to achieve 30% Matrigel in the final solution. […] After a month, the animals were sacrificed and the resulting tumors that formed for each experimental condition were excised and counted. […]

[7] = test system: HeLa cervical carcinoma cells; experiment: MV formation in HeLa cells, rhodamine-phalloidin labeling; type: cell-based, human; settings: serum-starved HeLa cells, EGF stimulation
Description: FIG. 2. Quantification of MV production by various cell lines cultured under serum-starved or EGF-stimulated conditions. Cells generating MVs were detected by labeling the samples with rhodamine-conjugated phalloidin. The data shown represents the mean±s.d. from three independent experiments.
FIG. 3. Images of cells from the experiment performed in FIG. 2. Some of the MVs are denoted with arrows.
as §1

Question: With `COc1cc2ncnc(Nc3cccc(Cl)c3)c2cc1OC` [AG1478] as the compound, how does the “anchorage-independent growth advantage imparted by U87 cell-derived MVs” value [1] read?
Answer: insensitive

Question: What does the source list for `C[C@H]1CCC/C=C/[C@@H]2C[C@H](O)C[C@H]2[C@H](O)/C=C/C(=O)O1` [BFA, brefelden A]?
Answer: effect on shedding of MVs (flotillin-2 and tTG in isolated MVs) [2]: nor was it affected; effect on MV formation [3]: not sensitive

Question: Which “effect on shedding of MVs (flotillin-2 and tTG in isolated MVs)” value [2] does the source give for `COC(=O)c1ccccc1NC(=O)c1ccc(F)cc1` [ExoI] here?
Answer: nor was it affected

Question: And the “effect on MV formation” value [3]?
Answer: not sensitive

Question: How did the “effect on MV formation” value [3] turn out when `CN(C)c1cccc2c(S(=O)(=O)NCCCCCN)cccc12` [MDC, monodansylcadaverine] was run?
Answer: had no effect

Question: What about the “crosslinking activity associated with MVs (levels of BPA-labeled casein)” value [4] of the same compound?
Answer: greatly diminished

Question: What about the “resistance to serum-deprivation-induced apoptosis” value [5] of the same compound?
Answer: ablated

Question: `CO[C@@]12[C@H](COC(N)=O)C3=C(C(=O)C(C)=C(N)C3=O)N1C[C@@H]1N[C@@H]12` [mitomycin-C] was tested. Which “ability of MDAMB231 cells to form tumors” value [6] did it give?
Answer: inhibited

Question: “epidermal growth factor [EGF, growth factor used to stimulate cells]” was tested. Which MV formation [7] did it give?
Answer: induced
